The text below walks through data of patent publication US20260224571A1, “AZACYCLOALKANE COMPOUND AND PHARMACEUTICAL COMPOSITION, AND USE THEREOF” (Prime Gene Therapeutics Co., Ltd., priority 2023, published 2026).

Structures are written as SMILES. Counter-ions that a name gives are not always drawn.

In one experiment the target is ROCK1 (Homo sapiens, UniProt Q13464). Kind of experiment: ROCK1 kinase enzymatic activity (HTRF, STK2 substrate). The format is biochemical. The following applies: ROCK1 kinase reacted at room temperature for 20 minutes. An excerpt: (§1) The kinase activity data was expressed by comparing the kinase activity of the test compound and that of the blank group (containing only DMSO), and the IC50 value was obtained by curve fitting using Prism software (GraphPad7.0).
Sequence of ROCK1 (Q13464 whole entry): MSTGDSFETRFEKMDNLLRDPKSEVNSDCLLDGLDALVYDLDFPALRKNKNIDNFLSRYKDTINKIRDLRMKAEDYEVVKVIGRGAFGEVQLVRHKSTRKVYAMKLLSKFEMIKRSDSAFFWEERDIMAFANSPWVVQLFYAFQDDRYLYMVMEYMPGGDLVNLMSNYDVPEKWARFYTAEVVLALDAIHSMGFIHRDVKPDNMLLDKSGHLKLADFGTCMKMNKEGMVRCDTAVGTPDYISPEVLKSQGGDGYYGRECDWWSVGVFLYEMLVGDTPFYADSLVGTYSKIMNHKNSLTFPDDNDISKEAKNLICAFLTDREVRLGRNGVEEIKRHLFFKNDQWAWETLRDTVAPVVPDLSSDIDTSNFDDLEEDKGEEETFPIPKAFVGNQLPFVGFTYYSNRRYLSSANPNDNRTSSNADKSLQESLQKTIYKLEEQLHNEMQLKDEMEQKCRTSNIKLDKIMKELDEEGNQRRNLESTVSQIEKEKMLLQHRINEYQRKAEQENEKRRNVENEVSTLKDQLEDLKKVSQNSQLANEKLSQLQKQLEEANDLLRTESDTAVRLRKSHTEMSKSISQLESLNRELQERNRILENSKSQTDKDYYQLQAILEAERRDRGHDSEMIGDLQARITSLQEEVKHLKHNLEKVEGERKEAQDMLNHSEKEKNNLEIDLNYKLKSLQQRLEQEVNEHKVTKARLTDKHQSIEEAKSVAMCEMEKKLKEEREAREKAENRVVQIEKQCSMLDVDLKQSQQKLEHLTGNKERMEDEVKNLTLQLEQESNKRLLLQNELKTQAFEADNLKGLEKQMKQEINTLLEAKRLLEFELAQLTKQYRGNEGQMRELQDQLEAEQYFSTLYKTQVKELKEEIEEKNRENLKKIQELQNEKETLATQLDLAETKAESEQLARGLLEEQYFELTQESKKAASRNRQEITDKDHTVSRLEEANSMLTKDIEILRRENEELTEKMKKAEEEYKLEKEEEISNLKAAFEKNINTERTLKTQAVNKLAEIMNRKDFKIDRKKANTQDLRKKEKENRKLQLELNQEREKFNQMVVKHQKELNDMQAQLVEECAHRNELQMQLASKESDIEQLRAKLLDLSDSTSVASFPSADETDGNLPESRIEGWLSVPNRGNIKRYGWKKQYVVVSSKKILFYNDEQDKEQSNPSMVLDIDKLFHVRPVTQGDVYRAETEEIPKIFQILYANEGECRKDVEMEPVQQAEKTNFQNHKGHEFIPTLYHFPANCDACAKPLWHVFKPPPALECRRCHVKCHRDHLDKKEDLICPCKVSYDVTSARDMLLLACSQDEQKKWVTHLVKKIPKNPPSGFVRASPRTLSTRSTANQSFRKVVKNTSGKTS

The target of the next experiment is ROCK2 (Homo sapiens, UniProt O75116). Put plainly: ROCK2 kinase enzymatic activity (HTRF, STK2 substrate). In kind it is biochemical. The following applies: ROCK2 kinase reacted at room temperature for 30 minutes.
Sequence of ROCK2 (O75116 whole entry): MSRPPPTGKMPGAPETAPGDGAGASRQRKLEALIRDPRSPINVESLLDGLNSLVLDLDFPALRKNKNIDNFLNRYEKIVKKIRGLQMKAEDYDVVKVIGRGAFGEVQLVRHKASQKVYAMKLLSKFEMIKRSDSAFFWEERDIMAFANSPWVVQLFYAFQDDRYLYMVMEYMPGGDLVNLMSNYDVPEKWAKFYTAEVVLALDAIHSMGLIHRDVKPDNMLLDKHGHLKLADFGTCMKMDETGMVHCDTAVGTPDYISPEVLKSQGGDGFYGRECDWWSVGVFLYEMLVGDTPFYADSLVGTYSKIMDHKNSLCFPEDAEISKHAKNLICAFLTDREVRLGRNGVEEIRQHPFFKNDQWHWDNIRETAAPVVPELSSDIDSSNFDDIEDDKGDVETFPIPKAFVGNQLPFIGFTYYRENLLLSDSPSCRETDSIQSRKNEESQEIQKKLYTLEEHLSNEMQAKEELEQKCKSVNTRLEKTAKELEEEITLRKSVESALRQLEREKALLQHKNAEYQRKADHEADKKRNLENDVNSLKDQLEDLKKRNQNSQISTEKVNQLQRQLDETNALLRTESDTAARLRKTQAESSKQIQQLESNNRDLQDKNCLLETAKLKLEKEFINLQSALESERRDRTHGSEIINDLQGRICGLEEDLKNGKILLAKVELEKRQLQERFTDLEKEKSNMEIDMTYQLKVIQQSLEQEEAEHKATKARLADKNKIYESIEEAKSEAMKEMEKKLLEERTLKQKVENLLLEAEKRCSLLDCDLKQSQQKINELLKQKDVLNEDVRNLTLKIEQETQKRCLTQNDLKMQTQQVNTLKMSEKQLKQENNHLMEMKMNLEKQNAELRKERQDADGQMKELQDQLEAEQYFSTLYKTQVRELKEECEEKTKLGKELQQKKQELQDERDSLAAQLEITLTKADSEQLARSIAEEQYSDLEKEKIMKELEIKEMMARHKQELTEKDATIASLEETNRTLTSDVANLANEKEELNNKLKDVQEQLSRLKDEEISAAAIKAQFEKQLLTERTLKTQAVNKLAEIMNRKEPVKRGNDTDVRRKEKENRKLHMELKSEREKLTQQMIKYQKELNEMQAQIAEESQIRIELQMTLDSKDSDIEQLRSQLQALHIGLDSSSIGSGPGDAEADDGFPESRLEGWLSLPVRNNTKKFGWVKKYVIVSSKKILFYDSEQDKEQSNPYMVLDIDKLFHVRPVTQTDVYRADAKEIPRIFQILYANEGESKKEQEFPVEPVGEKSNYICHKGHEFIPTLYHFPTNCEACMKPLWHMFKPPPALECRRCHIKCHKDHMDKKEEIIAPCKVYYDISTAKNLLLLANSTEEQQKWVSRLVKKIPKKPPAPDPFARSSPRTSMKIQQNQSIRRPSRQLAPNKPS
Description: as §1

The subject of experiment [1] is phosphorylation of myosin light chain T18/S19. Put plainly: In Cell Western for phosphorylation of myosin light chain in A7r5 cells. In kind it is cell-based. The following applies: rat smooth muscle cell line A7r5, 1 hour with compound, phospho-MLC-T18/S19; read-out: cellular activity IC50. From the text: The rat smooth muscle cell line A7r5 was used, and the A7r5 cell culture conditions were DMEM containing 10% FBS. Phspho-MLC-T18/S19 specific antibody and a second detection antibody were used to detect the phosphorylation level of myosin light chain by In Cell Western. Cells treated with positive compounds were used as positive controls, while the group without compounds but with compound solvents was used as negative controls. DRAQ5 stained cell nuclei were used as internal references. GraphPad Prism 7.0 software was used, and fitting was carried out by using a non-linear regression curve with varying slopes to determine the absolute IC50 value.
On the first day, A7r5 cells were resuspended in serum-free medium and seeded into 384 wells of PDL coated transparent black plates at a density of 5000 cells per well. Serum starvation culture was performed for 4 hours, and the cells were incubated with the compound in serum-free medium for 1 hour. 50 μL of 8% PFA (polyformaldehyde) was added to each well and fixed at room temperature for 1 hour. The liquid in the wells was discard and 90 μL of ice methanol was added to each well to permeabilize the cells at 4° C. for 1 hour. Then, PBST (0.1% Tween20-PBS) was added using an automatic separator to wash three times. After patting the plate for drying, 50 μL blocking solution was added to each well for sealing at room temperature for 1 hour. The phspho-MLC-T18/S19 specific antibody was diluted with the blocking solution at a ratio of 1:200. After adding 20 μL to each well, incubation was carried out overnight at 4° C. with a sealed film.
On the second day, the liquid in the wells was discarded and PBST was added using an automatic separator to wash the plate 5 times. After patting the plate for drying, the second detection antibody was diluted with blocking solution at a ratio of 1:800 and DRAQ5 at a ratio of 1:1000. After adding 20 μL to each well, incubation was carried out at room temperature for 1 hour. Then, the liquid in the wells was discarded and PBST was added using an automatic separator to wash the plate 3 times, followed by adding ddH2O to wash the plate 3 times. After patting the plate for drying, it was scanned using a LICOR Odyssey near-infrared imaging scanner.

A word on the IC50: it is the concentration that gives 50% inhibition. For `COc1nsc(NC(=O)N2CC(CC#N)(n3cc(-c4ncnc5[nH]ccc45)c(N)n3)C2)n1` [Example 19, 3-(3-amino-4-(7H-pyrrolo[2,3-d]pyrimidin-4-yl)-1H-pyrazol-1-yl)-3-(cyanomethyl)-N-(3-methoxy-1,2,4-thiadiazol-5-yl)azetidine-1-formamide], the IC50 was less than 10 nM against ROCK1, less than 10 nM against ROCK2 and greater than 10000 nM in experiment [1].

As to `N#CCC1(n2cc(-c3ncnc4[nH]ccc34)c(N)n2)CN(C(=O)[C@H]2C[C@@H]2F)C1` [Example 31, 2-(3-(3-amino-4-(7H-pyrrolo[2,3-d]pyrimidin-4-yl)-1H-pyrazol-1-yl)-1-((1R, 2S)-2-fluorocyclopropane-1-carbonyl)azetidine-3-yl)acetonitrile], the IC50 was less than 5 nM at ROCK1, less than 5 nM against ROCK2 and 381 nM in experiment [1].

Regarding `N#CCC1(n2cc(-c3ncnc4[nH]ccc34)c(N)n2)CN(C(=O)[C@@H]2CC2(F)F)C1` [Example 34, (S)-2-(3-(3-amino-4-(7H-pyrrolo[2,3-d]pyrimidin-4-yl)-1H-pyrazol-1-yl)-1-(2,2-difluorocyclopropane-1-carbonyl)azetidine-3-yl)acetonitrile], the IC50 on ROCK1 was less than 10 nM; against ROCK2, less than 10 nM; in experiment [1] it was 551 nM.

As to `CN=S(C)(=O)N1CC(CC#N)(n2cc(-c3ncnc4[nH]ccc34)c(N)n2)C1` (stereo not drawn) [Example 37, 2-(3-(3-amino-4-(7H-pyrrolo[2,3-d]pyrimidin-4-yl)-1H-pyrazol-1-yl)-1-(N,S-dimethylsulfonylimino)azetidine-3-yl)acetonitrile], the IC50 on ROCK1 is less than 50 nM; on ROCK2, less than 50 nM; in experiment [1], 1590 nM.

As to `CCS(=N)(=O)N1CC(CC#N)(n2cc(-c3ncnc4[nH]ccc34)c(N)n2)C1` (stereo not drawn) [Example 38, 2-(3-(3-amino-4-(7H-pyrrolo[2,3-d]pyrimidin-4-yl)-1H-pyrazol-1-yl)-1-(ethylsulfonylimino)azetidine-3-yl)acetonitrile], the IC50 was less than 5 nM on ROCK1, less than 5 nM against ROCK2 and 3130 nM in experiment [1].

Regarding `N#CCC1(n2cc(-c3ncnc4[nH]ccc34)c(N)n2)CN(S(=O)(=O)NCC(F)(F)F)C1` [Example 40, 3-(3-amino-4-(7H-pyrrolo[2,3-d]pyrimidin-4-yl)-1H-pyrazol-1-yl)-3-(cyanomethyl)-N-(2,2,2-trifluoroethyl)azetidine-1l-sulfonamide], the figures for the concentration for half-maximal inhibition (IC50) (against ROCK1; against ROCK2; in experiment [1]) were less than 10 nM, less than 10 nM and 1570 nM, respectively.

With `CCNS(=O)(=O)N1CC(CC#N)(n2cc(-c3ncnc4[nH]ccc34)c(N)n2)C1` [Example 41, 3-(3-amino-4-(7H-pyrrolo[2,3-d]pyrimidin-4-yl)-1H-pyrazol-1-yl)-3-(cyanomethyl)-N-ethylazetidine-1-sulfonamide], the IC50 against ROCK1 is less than 10 nM; on ROCK2, less than 10 nM; in experiment [1], 91 nM.

`N#CCC1(n2cc(-c3ncnc4[nH]ccc34)c(N)n2)CN(S(N)(=O)=O)C1` [Example 45, 3-(3-amino-4-(7H-pyrrolo[2,3-d]pyrimidin-4-yl)-1H-pyrazol-1-yl)-3-(cyanomethyl)azetidine-1-sulfonamide]: the IC50 is less than 5 nM against ROCK1, less than 5 nM at ROCK2 and 579 nM in experiment [1].

As for `N#CCNS(=O)(=O)N1CC(CC#N)(n2cc(-c3ncnc4[nH]ccc34)c(N)n2)C1` [Example 50, 3-(3-amino-4-(7H-pyrrolo[2,3-d]pyrimidin-4-yl)-1H-pyrazol-1-yl)-N,3-bis(cyanomethyl)azetidine-1-sulfonamide], the IC50 against ROCK1 is less than 10 nM; against ROCK2 it was less than 10 nM; in experiment [1] it was 98 nM.

`N#CCC1(n2cc(-c3ncnc4[nH]ccc34)c(O)n2)CN(C(=O)NCC(F)(F)F)C1` [Example 55, 3-(cyanomethyl)-3-(3-hydroxyl-4-(7H-pyrrolo[2,3-d]pyrimidin-4-yl)-1H-pyrazol-1-yl)-N-(2,2,2-trifluoroethyl)azetidine-1-formamide]: the values for the IC50 (against ROCK1; on ROCK2; in experiment [1]) were less than 50 nM, greater than 100 nM and greater than 10000 nM, respectively.

As for `N#CCC1(n2cc(-c3ncnc4[nH]ccc34)c(C(N)=O)n2)CN(C(=O)NCC(F)(F)F)C1` [Example 61, 1-(3-(cyanomethyl)-1-((2,2,2-trifluoroethyl)carbamoyl)azetidine-3-yl)-4-(7H-pyrrolo[2,3-d]pyrimidin-4-yl)-1H-pyrazol-3-formamide], the figures for the IC50 (on ROCK1; on ROCK2; in experiment [1]) were greater than 100 nM, greater than 100 nM and greater than 10000 nM, respectively.

For `CNC(=O)c1nn(C2(CC#N)CN(S(=O)(=O)CC(F)(F)F)C2)cc1-c1ncnc2[nH]ccc12` [Example 62, 1-(3-(cyanomethyl)-1-((2,2,2-trifluoroethyl)sulfonyl)azetidine-3-yl)-N-methyl-4-(7H-pyrrolo[2,3-d]pyrimidin-4-yl)-1H-pyrazol-3-formamide], the IC50 is greater than 100 nM at ROCK1, greater than 100 nM against ROCK2 and greater than 10000 nM in experiment [1].

In the case of `Cn1cc(Nc2cc(-c3cn(C4(CC#N)CN(S(C)(=O)=O)C4)nc3N)ncn2)cn1` [Example 69], the figures for the IC50 (against ROCK1; against ROCK2; in experiment [1]) were greater than 100 nM, greater than 100 nM and greater than 10000 nM, respectively.

Regarding `CCS(=O)(=O)N1CC(CC#N)(n2cc(-c3cc(-c4cnn(C)c4)nc4ccnn34)c(N)n2)C1` [Example 82], the results for the IC50 (at ROCK1; on ROCK2; in experiment [1]) were greater than 100 nM, greater than 100 nM and greater than 10000 nM, respectively.

As to `C[C@H](N)CS(=O)(=O)N1CC(CC#N)(n2cc(-c3ncnc4[nH]ccc34)c(N)n2)C1` [Example 87, (S)-2-(3-(3-amino-4-(7H-pyrrolo[2,3-d]pyrimidin-4-yl)-1H-pyrazol-1-yl)-1-((2-aminopropyl)sulfonyl)azetidine-3-yl)acetonitrile trifluoroacetate salt], the IC50 was less than 5 nM on ROCK1, less than 5 nM on ROCK2 and 678 nM in experiment [1].

In the case of `C[C@@H](N)CS(=O)(=O)N1CC(CC#N)(n2cc(-c3ncnc4[nH]ccc34)c(N)n2)C1` [Example 88, (R)-2-(3-(3-amino-4-(7H-pyrrolo[2,3-d]pyrimidin-4-yl)-1H-pyrazol-1-yl)-1-((2-aminopropyl)sulfonyl)azetidine-3-yl)acetonitrile trifluoroacetate salt], the figures for the IC50 (against ROCK1; on ROCK2; in experiment [1]) were less than 5 nM, less than 5 nM and 826 nM, respectively.
